Patent US6008188A, “Cytokine potentiator and pharmaceutical formulation for cytokine administration” (Kanebo Limited, priority 1994, dated 1999)
Where two headings read alike, the source gives them in different places.

Assays:
[1] = test system: Normal human fibroblasts [Detroit-551 (ATCC CCL 110)]; experiment: Response to βFGF: procollagenase production by normal human fibroblasts Detroit-551 (Test Examples 4-10); format: cell-based; conditions: for activity at 3000 µM / activity at 1000 µM: Homo sapiens, Detroit 551, 96 h, read-out: Response to βFGF Increment; for Procollagenase Production: mean ± SD, n = 3
Protocol: (§1) In the following tests, the procollagenase production was quantified in terms of the collagenase activity as obtained through activation with trypsin.
(§2) It is known that βFGF promotes procollagenase production. In the following tests, therefore, the βFGF activity increment as attained by the compound added was calculated from the procollagenase production, relative to the control using purified water in place of the test compound.
(§3) Normal human fibroblasts [Detroit-551 (ATCC CCL 110) as prepared from the skin of a person] were suspended at a cell density of 1×10^5 cells/ml in the MEM medium, comprising 10% (V/V) FBS, 0.1% (W/V) (as final concentration) of enzymatic hydrolysate of lactalbumin (produced by Sigma Co.), 1% (V/V) non-essential amino acids and 1 mM sodium pyruvate (both produced by Dai-Nippon Pharmaceutical Co.). The suspended cells were seeded into each well of a 12-well plate in an amount of 0.8 ml/well (corresponding to 8×10^4 cells/well) and incubated in a saturated aqueous vapor with 5% CO2 at 37uC.
A cytokine activity enhancer (ethanolamine) as obtained in Example 3 mentioned below was diluted with an MEM medium containing 0.6% (V/V) FBS, 0.1% (W/V) (as final concentration) of enzymatic hydrolysate of lactalbumin, 1% (V/V) non-essential amino acids and 1 mM sodium pyruvate, to be 1 mM, and this was used as a solution to be added to the incubated cells.
(§4) After having been incubated for 24 hours, the culture medium was removed from the plate by suction, and the cells remained were washed twice with the MEM medium containing 0.6% (V/V) (as final concentration) of FBS. Then, the cells were fed with 0.8 ml of the solution prepared above, and were incubated for 4 days.
After the 4 days incubation, the culture medium was removed from the plate by suction, and the cells were fed with 0.8 ml of the MEM medium containing 3 ng/ml βFGF, 0.6% (V/V) FBS, 0.1% (W/V) (as final concentration) of enzymatic hydrolysate of lactalbumin, 1% (V/V) non-essential amino acids and 1 mM sodium pyruvate, and were incubated for 3 days to obtain a culture supernatant.
Next, in the same manner as in Test Example 1, procollagenase was recovered from the CM-Sepharose CL-6B (trade name), and the amount of procollagenase thus collected was measured.
A cytokine activity enhancer (N-methylethanolamine) as obtained in Example 4 to be mentioned hereinunder was tested for the βFGF activity increment, in the same manner as in Test Example 4.
as §3, with “collected” for “prepared”, “medium (hereinafter referred to as MEM2 medium),” for “medium,”, “1% (V/V)” for “0.1% (W/V)”, “of” for “of enzymatic hydrolysate of lactalbumin (produced by Sigma Co.), 1% (V/V)”, “The” for “The suspended”, “37° C.” for “37uC.”
A cytokine activity enhancer (Diisopropanolamine) as obtained in Example 5 mentioned below was diluted with the MEM2 medium containing 0.6% (V/V) FBS to be 3 mM, and this was used as a solution to be added to the incubated cells.
as §4, with “the MEM2” for “the MEM”, “prepared above” for “prepared above,”, “for 2” for “for 4”
After the 2 days incubation, the culture was removed by filtration under suction, and 0.8 ml of the solution was again added to the remaining cells, which were then incubated for 2 days. Thus, the cells were incubated for 4 days in total. […]

[2] = test system: Normal human fibroblasts [CCD45SK (ATCC CRL 1506)]; experiment: Response to βFGF: procollagenase production by normal human fibroblasts CCD45SK (Test Examples 1-3); format: cell-based; conditions: Test Example 3, 1 mM, 10 ng/ml βFGF
Protocol: as §1, §2
Normal human fibroblasts [CCD45SK (ATCC CRL 1506) as prepared from the skin of a person] were suspended at a cell density of 1×10^5 cells/ml in the MEM medium, comprising 10% (V/V) FBS and 1% (V/V) non-essential amino acids (produced by Dai-Nippon Pharmaceutical Co.). The suspended cells were seeded into each well of a 12-well plate in an amount of 0.8 ml/well (corresponding to 8×10^4 cells/well) and incubated in a saturated aqueous vapor with 5% CO2 at 37° C. […]
as §4, with “with an” for “with the”, “0.6% (v/v)” for “0.6% (V/V)”, “prepared above added to the cells, which” for “prepared above, and”, “for 2” for “for 4”
After the 2 days incubation, the culture medium was removed from the plate by suction, and the cells were fed with 0.8 ml of the solution and were further incubated for 2 days. This operation was repeated once again. Thus, the cells were processed in the medium containing the cytokine activity enhancer for 6 days in total.
After the above-mentioned process, the culture medium was removed from the plate by suction, and the cells were fed with 0.8 ml of an MEM medium containing 3 ng/ml of βFGF (produced by Boehringer Manheim Co.) and 0.6% (V/V) FBS, and were incubated for 3 days to obtain a culture supernatant.
3.5 ml of 10 mM Tris-HCl buffer [adjusted at pH 7.8 at 4° C., containing 1 mM calcium chloride and 0.05% (W/V) Brij-35] was added to 500 μl of the thus-obtained culture supernatant, and applied to CM-Sepharose CL-6B (trade name, produced by Pharmacia Co., having a bed volume of 0.5 ml) as previously equilibrated with the same buffer.
Next, the inhibitor was removed through treatment with 0.5 ml of the same buffer as above but containing 125 mM sodium chloride (4 times in all, 2 ml of the buffer was used in total), and the procollagenase was recovered through treatment with 0.5 ml of the same buffer as above but containing 500 mM sodium chloride (4 times in all, 2 ml of the buffer was used in total). This was used as a test sample.
The test sample was suitably diluted with a buffer for measurement (mentioned above), 25 μl of the thus-diluted sample was mixed with 25 μl of the buffer, 20 μl of a trypsin solution (as prepared by adding trypsin, Type 12 (produced by Sigma Co.) to the buffer at a concentration of 1 mg/ml) was added thereto, and this was incubated at 35° C. for 5 minutes. Then, 30 μl of a soybean trypsin inhibitor solution (as prepared at a concentration of 3 mg/ml, using the buffer) was added to this to thereby inactivate the trypsin. The resulting solution is designated collagenase solution.
Using type I collagen as labeled with fluorescein isothiocyanate (hereinafter referred to as FITC) (this is an acetic acid solution of FITC-collagen having a concentration of 1 mg/ml; produced by Cosmo-Bio Co.), as a substrate solution, the collagenase activity (unit/ml) of the solution was measured according to the method of Nagai et al. (see Inflammations, Vol. 4, No. 2, p. 123, 1984). […] The procollagenase production (unit/ml of culture medium) was thus obtained and referred to as X1.

[3] = test system: Japanese native, male house rabbits
Protocol: Aqueous solutions of N-Methyl-L-Serine, Ethanolamine and N-Methylethanolamine that had been adjusted to have a pH of 7 with hydrochloric acid were used as test samples.
Using Japanese native, male house rabbits (body weight: about 3 kg), the test samples were tested according to the Draize method (see Appraisal of the Safety of Chemicals in Foods, Drugs and Cosmetics, p. 46, 1959, edited and published by the Deitorial Committee, Association of Food and Drug Officials of U.S.A.).
24 hours after the last application, the tested area of each rabbit was checked to score the erythema, edema, scab and rhagades, if any, formed in the area.
The erythema score, the edema score, the scab score, and the rhagades score as referred to in Table 17 were summed up to obtain the cumulative stimulation score.
Next, from the cumulative stimulation scores, obtained were the degrees of stimulation with N-Methyl-L-Serine, Ethanolamine and N-Methylethanolamine,according to the criteria shown in Table 18 below.

[4] = test system: Japanese native, male house rabbits; remark: listed apart in the source
Protocol: Aqueous solutions of N-methyl-L-serine, ethanolamine and N-methylethanolamine that had been adjusted to have a pH 7 with hydrochloric acid were used as test samples.
Using Japanese native, male house rabbits (body weight: about 3 kg), the test samples were tested according to the above-mentioned the Draize method.
Precisely, the back of each rabbit was shaven and rubbed to form a scratched site (scratched skin). An adhesive tape for patch test (1.2×1.6 cm; Ribbon Aid, registered trade mane, produced by River Tape Chemicals Co.) as wetted with 0.1 ml of water, or 0.1 ml of an aqueous 1% (W/V) solution of the test compound was stuck onto the scratched skin and the normal skin. […] In addition, 48 hours after the peeling of the tape, the condition of the skin was also observed.
The scores as referred to in Table 21 were obtained, and the primary stimulation score was calculated according to the following equation.
Primary Stimulation Score=[(A+B)/2]+[(C+D)/2]+[(E+F)/2]+[(G+H)/2]
Next, from the primary stimulation scores, obtained was the degree of stimulation with N-Methyl-L-Serine or Ethanolamine or N-Methylethanolamineaccording to the criteria shown in Table 22 below.

healthy panelists = test system: healthy panelists
Protocol: Aqueous solutions of N-methyl-L-serine, ethanolamine and N-methylethanolamine that had been adjusted to have a pH 7 with hydrochloric acid were used as test samples. These test samples were applied to 19 healthy panelists.
One hour and 24 hours after the removal of the patch, the condition of the skin of each panelist was observed.

IFN = conditions: cited from earlier work
[5] = test system: Normal human fibroblasts [CCD45SK (ATCC CRL 1506)]; experiment: Response to TGF-β1: TIMP production by normal human fibroblasts (Test Examples 12-13); format: cell-based
Protocol: Normal human fibroblasts [CCD45SK (ATCC CRL 1506) as prepared from the skin of a person] were suspended at a cell density of 1×10^5 cells/ml in the MEM medium, comprising 10% (V/V) FBS and 1% (V/V) non-essential amino acids (produced by Dai-Nippon Pharmaceutical Co.). The suspended cells were seeded into each well of a 12-well plate in an amount of 0.8 ml/well (corresponding to 8×10^4 cells/well) and incubated in a saturated aqueous vapor with 5% CO2 at 37° C.

[6] = Test Examples 6-10, 3 mM, 4 days, 3 ng/ml βFGF, MEM2 medium, control = 100
[7] = Test Examples 6-10, 3 mM, 4 days, 3 ng/ml βFGF, MEM2 medium
[8] = Test Examples 4-5, 1 mM, 4 days, 3 ng/ml βFGF

## NCC(O)CN [Example 8, 1,3-Diamino-2-Propanol]
[1]; [6]
  activity at 3000 µM: 150%
[1]; [7]
  Procollagenase Production: 18 ± 0.95 unit/ml

## OCCNCCO [Example 2, diethanolamine]
[2]; Homo sapiens, Fibroblast, control = 100, read-out: Response to βFGF Increment
  activity at 1000 µM: 190%
[2]; mean ± SD, n = 3
  Procollagenase Production: 14 ± 1.3 unit/ml

## CCC(O)CN (stereo not shown) [Example 9, 1-Amino-2-Butanol]
[1]; [6]
  activity at 3000 µM: 290%
[1]; [7]
  Procollagenase Production: 24 ± 2.3 unit/ml

## CNCCO [Example 4, N-methylethanolamine]
[3]; rabbit, in vivo
  cumulative stimulation to the skin (in words): low
[1]; Test Examples 4-5, 1 mM, 4 days, 3 ng/ml βFGF, control = 100
  activity at 1000 µM: 180%
[1]; [8]
  Procollagenase Production: 12 ± 1.7 unit/ml
[4]; rabbit, in vivo
  Primary Stimulation Score: 0.25
  stimulation to the skin (in words): low
Healthy panelists; in vivo
  panelists with erythema: only one panelists had minor erythema

## CC1(C)[C@@H](O[C@H]2O[C@H](C(=O)O)[C@@H](O)[C@H](O)[C@H]2O[C@@H]2O[C@H](C(=O)O)[C@@H](O)[C@H](O)[C@H]2O)CC[C@]2(C)[C@H]3C(=O)C=C4[C@@H]5C[C@@](C)(C(=O)O)CC[C@]5(C)CC[C@@]4(C)[C@]3(C)CC[C@@H]12 [Glychrrhizic acid, glycyrrhizic acid]
IFN
  IFN-producing activity: has an IFN-producing activity

## NCCO [Example 3, ethanolamine]
[3]; 0.1 ml of aqueous 0.1% (W/V) solution, once a day for 4 days
  Cumulative Stimulation Score: 0
[3]; aqueous 0.1% (W/V) solution
  cumulative stimulation to the skin (in words): low
[1]
  activity at 1000 µM: 180%
[1]; [8]
  Procollagenase Production: 21 ± 1.3 unit/ml
[4]; 0.1 ml of aqueous 1% (W/V) solution, patch 24 hours, normal and scratched skin
  Primary Stimulation Score: 0
[4]; aqueous 1% (W/V) solution
  stimulation to the skin (in words): low
Healthy panelists; 0.05 ml of aqueous 1% (W/V) solution, 24 hours closed patch, 1 hour and 24 hours after removal, 19 panelists
  panelists with erythema: only one panelists had minor erythema
[5]; Homo sapiens, Fibroblast, 144 h, read-out: Response to TGF-β1 Increment
  activity at 1000 µM: 160%
[5]; Test Example 13, 1 mM, 4 days, supernatant 6 days after TGF-β1, mean ± SD, n = 3
  TIMP Production: 250 ± 9.0 unit/ml

## CC(N)CO (racemic) [Example 6, D,L-2-Amino-1-Propanol]
[1]; [6]
  activity at 3000 µM: 380%
[1]; [7]
  Procollagenase Production: 33 ± 4.7 unit/ml

## CC(O)CNCC(C)O (stereo not shown) [Example 5, Diisopropanolamine]
[1]; [6]
  activity at 3000 µM: 760%
[1]; [7]
  Procollagenase Production: 65 ± 13 unit/ml

## CCC(N)CO (stereo not shown) [Example 7, 2-Amino-1-Butanol]
[1]; [6]
  activity at 3000 µM: 190%
[1]; [7]
  Procollagenase Production: 22 ± 2.4 unit/ml
